From publication PMC8395335, “Serotonergic–Muscarinic Interaction within the Prefrontal Cortex as a Novel Target to Reverse Schizophrenia-Related Cognitive Symptoms” (International Journal of Molecular Sciences, 2021)
Each block holds one molecule with its values, some of them ahead of it.

How the values were obtained:
PCP-induced deficits = system: PCP-induced deficits; set-up: method as in PMID 20488670; conditions: cited from earlier work
rats = system: rats; set-up: method as in PMID 19154445; conditions: cited from earlier work
in vivo = assay: in vivo; set-up: species or system mice; conditions: mouse
Method: The experiment was performed using the methods described by Bridges et al. and in our previous studies.
The pharmacokinetic analysis was performed in the blood and prefrontal cortex. […] Plasma and FC samples were stored at −80 °C until analysis.
The drug was administered at a dose of 0.1 mg/kg; brain and tissue samples were collected 15, 30, 60, and 120 min after administration.
On the day of analysis, frozen whole mouse brain tissues were weighed and homogenized in 1:2 (w/v) volumes of ice-cold acetonitrile containing 0.1% FA and the internal standard mix. Samples were homogenized using a Metal Bead Lysing Matrix, vortexed for 1 min, shaken for 20 min at 4 °C on Thermomixer C, and centrifuged at 14,000× g rpm for 20 min at 4 °C. Finally, 50 µL of supernatant were diluted with 0.1% FA in water (1:1, v/v) and analyzed using HPLC/MS/MS.
The sample extraction of plasma (20 μL) was performed after spiking with the internal standard mix using the protein precipitation method and three volumes of ice-cold acetonitrile containing 0.1% formic acid. The extract was vortexed, incubated on ice for 20 min and centrifuged at 14,000× g rpm for 20 min at 4 °C. The supernatant was diluted with 0.1% FA in water (1:1, v/v) and analyzed by means of HPLC/MS/MS using a QTRAP 4500 (AB Sciex) mass spectrometer in positive ion mode in Multiple Reaction Monitoring (MRM screening) coupled with UHPLC (NEXERA XR, Shimadzu). Chromatographic separation was achieved on a Synergi 4 µm Fusion-RP 80 A 50 × 2 mm (Phenomenex) column at a flow rate of 0.2 mL/min. The gradient program was as follows: 20% B (0.3 min), 20–100% B (1.7 min), 100% B (3 min), 100–20% B (0.1 min), 20% B (2 min), solvent A (95:5:0.1% formic acid in water:methanol) and solvent B (methanol containing 0.1% formic acid). The column temperature was set to 40 °C. Analyst software was used to control the instrument and collect data. The ion transfer tube temperature was 300 °C. The spray voltage, collision energy, declastering potential, and gas parameters were optimized to achieve the maximal response using the test compounds. Selected reaction monitoring was carried out using the transition parameters. Calibration curves were constructed, and a linear response was obtained in the range of 0.25–500 ng/mL (VU357017, VU0152100, and F15599) and 1.25–2500 ng/mL (VU0238429) by spiking known amounts of each compound in blank brain homogenates and plasma. For VU0357017 and F15599 IS VU0152100 was used as internal standard. Sample concentration of internal standard was 100 ng/mL for IS VU0238429 and 50 ng/mL for IS VU0152100.

MK-801-treated mice = assay: Y-maze test (spontaneous alternations), MK-801-induced deficits; format: in vivo; conditions: for Reversal of MK-801-induced disruptions in Y-maze by combined administration: 7 days; for Effect of combined administration on spontaneous alternations in the Y-maze test: MK-801-treated
Method: Drugs were administered on two different schedules: (1) acute administration of compounds 45 min (WAY100635—5-HT1A antagonist) or 30 min (VU0357017, VU152100, VU0238429, and F15599) before MK-801 (also administered once 30 min before the test in Y-maze or T1 in NOR test); and (2) prolonged administration (once per day for 7 consecutive days) of the compounds and MK-801 with the last administration 24 h before the test (NOR test) or at the day of the test (Y-maze). […] Schedules of administration are presented graphically in Figure 2. The subeffective doses of the compounds for acute administration in the NOR test were chosen based on our previous research (see: [22, 23]) while dose-dependent studies of the activity of the compounds in reversing disruptions in the Y-maze or after prolonged administration along with MK-801 were performed within this study. Different vehicles were used throughout the study: (1) 0.9% NaCl and (2) 10% Tween 80. Vehicles were administered to all animals (e.g., control mice and MK-801-treated mice) on the same schedule as drugs were administered to the appropriate drug-treated groups of mice. Neither solvent exerted effects on animal behavior.
Male Albino Swiss mice (Charles River, Sulzfeld, Germany) weighing 20–25 g at the beginning of the experiments were used in the studies. The animals were housed in a room with a 12:12 h light-dark cycle at a temperature of 22 ± 1 °C with food and water available ad libitum. The experimental groups consisted of 8–10 animals. All drugs were administered intraperitoneally (i.p.) at a volume of 10 mL/kg. The behavioral experiments were performed by an observer who was blinded to the treatment. The procedures were conducted in accordance with the European Communities Council Directive of 22 September 2010 (2010/63/EU) and Polish legislation acts concerning animal experimentation and were approved by the II Local Ethics Committee by the Maj Institute of Pharmacology, Polish Academy of Sciences in Krakow (15/2020, 240/2020).
In acute experiments, the tested compounds (alone or in combination) were administered 30 min before MK-801 (0.3 mg/kg), which was administered 30 min before the test or training trial (T1) in the NOR test. In chronic experiments, the tested compounds (alone or in combination) and MK-801 were administered for seven days. Behavioral tests were performed on the eighth day.
The Y-maze was performed using the methods described by Miedel et al. and Kraeuter et al. with minor modifications. A black, wooden Y-shaped apparatus with equal length arms (labeled A, B, or C) spaced 120 apart was used in the behavioral experiment. Visual clues were placed inside the maze and mounted to the back wall of each arm. The experiment was performed in a well-lit room. The mice were placed in the same starting arm and were allowed to freely explore the maze for 8 min. After each trial, the maze was wiped clean. The sequence and the number of arm entries were recorded to calculate the percentage of spontaneous alternations using the following formula: [(Number of alternations)/(Total arm entries − 2)] × 100. An arm entry was scored if the animal entered the arm with all paws. Consecutive entries into three distinct arms were scored as an alternation (e.g., ACB, but not ACA) in which sequences could overlap (e.g., ACBACABAC represents […] alternations).

[1] = set-up: method as in PMID 31174329, PMID 19438238; conditions: earlier studies; cited from earlier work
[2] = F15599 0.025 mg/kg with VU0238429 1 mg/kg (subeffective doses)
[3] = F15599 0.025 mg/kg with VU0357017 1 mg/kg (subeffective doses)
[4] = acute, F15599 0.1 mg/kg with VU0238429 5 mg/kg
[5] = acute, F15599 0.1 mg/kg with VU0357017 10 mg/kg

Time after administration up to which drug was detected in the frontal cortex (in vivo; Albino Swiss): up to 2 h | Tmax (in vivo; Albino Swiss, ip, 0.1 mg/kg): 15 min | Tmax PFC (FC) (in vivo; Albino Swiss, ip, 0.1 mg/kg): 15 min | half-life (in vivo; Albino Swiss, ip, 0.1 mg/kg): 120 min | Cmax (in vivo; Albino Swiss, ip, 0.1 mg/kg, Cmax PFC (FC)): 48 ng/mL | Cmax (in vivo; Albino Swiss, ip, 0.1 mg/kg, Cmax plasma): 27 ng/mL | half-life (in vivo; ip, 0.1 mg/kg): 35 min
SMILES: Cc1cnc(CNCC2(F)CCN(C(=O)c3ccc(F)c(Cl)c3)CC2)nc1 [F15599]
Effect on PCP-induced deficits during the reversal phase of the learning task and in the hole-board test (PCP-induced deficits): ameliorated | Doses inducing some adverse effects related to serotonergic syndrome (rats): greater than 0.16 mg/kg | Reversal of MK-801-induced reduction in spontaneous alternations in the Y-maze (MK-801-treated mice; 7 days with MK-801, 0.025 mg/kg): ineffective | Reversal of MK-801-induced reduction in spontaneous alternations in the Y-maze (MK-801-treated mice; 7 days with MK-801, 0.05 mg/kg): ineffective | Reversal of MK-801-induced reduction in spontaneous alternations in the Y-maze (MK-801-treated mice; 7 days with MK-801, 0.1 mg/kg): reversed | Reversal of MK-801-induced disruptions in Y-maze by combined administration (MK-801-treated mice; F15599 0.025 mg/kg with VU0152100 0.05 mg/kg (subeffective doses)): did not reverse | Reversal of MK-801-induced disruptions in Y-maze by combined administration (MK-801-treated mice; [2]): did not reverse | Reversal of MK-801-induced disruptions in Y-maze by combined administration (MK-801-treated mice; [3]): did not reverse | Reversal of MK-801-induced reduction in spontaneous alternations in the Y-maze (MK-801-treated mice; acute, 0.05-0.5 mg/kg i.p.): no efficacy | Effect of combined administration on spontaneous alternations in the Y-maze test (MK-801-treated mice; acute, F15599 0.1 mg/kg with VU0152100 1 mg/kg): no effect | Effect of combined administration on spontaneous alternations in the Y-maze test (MK-801-treated mice; [4]): no effect | Effect of combined administration on spontaneous alternations in the Y-maze test (MK-801-treated mice; [5]): no effect

SMILES: COc1ccc(CN2C(=O)C(=O)c3cc(OC(F)(F)F)ccc32)cc1 [VU0238429]
Brain penetration (whole brain) [1]: ≤ 8% | Reversal of MK-801-induced reduction in spontaneous alternations in the Y-maze (MK-801-treated mice; 7 days with MK-801, 0.5 mg/kg): not | Reversal of MK-801-induced reduction in spontaneous alternations in the Y-maze (MK-801-treated mice; 7 days with MK-801, 1 mg/kg): not | Reversal of MK-801-induced reduction in spontaneous alternations in the Y-maze (MK-801-treated mice; 7 days with MK-801, 5 mg/kg): active | Reversal of MK-801-induced disruptions in Y-maze by combined administration (MK-801-treated mice; [2]): did not reverse | Reversal of MK-801-induced reduction in spontaneous alternations in the Y-maze (MK-801-treated mice; acute, 5 mg/kg i.p.): ineffective | Reversal of MK-801-induced reduction in spontaneous alternations in the Y-maze (MK-801-treated mice; acute, 10 mg/kg i.p.): reversed | Reversal of MK-801-induced reduction in spontaneous alternations in the Y-maze (MK-801-treated mice; acute, 20 mg/kg i.p.): reversed | Effect of combined administration on spontaneous alternations in the Y-maze test (MK-801-treated mice; [4]): no effect

SMILES: CCOC(=O)N1CCC(NCCNC(=O)c2ccccc2C)CC1 [VU0357017]
Reversal of MK-801-induced reduction in spontaneous alternations in the Y-maze (MK-801-treated mice; 7 days with MK-801, 0.5 mg/kg): not | Reversal of MK-801-induced reduction in spontaneous alternations in the Y-maze (MK-801-treated mice; 7 days with MK-801, 1 mg/kg): not | Reversal of MK-801-induced reduction in spontaneous alternations in the Y-maze (MK-801-treated mice; 7 days with MK-801, 5 mg/kg): activity of VU0357017 was observed | Reversal of MK-801-induced disruptions in Y-maze by combined administration (MK-801-treated mice; [3]): did not reverse | Reversal of MK-801-induced reduction in spontaneous alternations in the Y-maze (MK-801-treated mice; acute, 1-10 mg/kg i.p.): No efficacy | Effect of combined administration on spontaneous alternations in the Y-maze test (MK-801-treated mice; [5]): no effect
